Test results reported in PMC7044277 (Nature Communications, 2020).
Several values for one entry are separate records, joined by “and”; a condition that tells them apart may be missing. Identical values can stand only once.

What was measured:
Assay type in all cases: cell-based
320 non-olfactory GPCRs [1] = biological target: T1, 320 non-olfactory GPCRs (Homo sapiens, UniProt Q5NUL3)
T1 construct: expressed in transfected cells; host or cells: HTLA cells

320 non-olfactory GPCRs [2] = biological target: T2, 320 non-olfactory GPCRs (Homo sapiens, UniProt P37288)
T2 construct: expressed in transfected cells; host or cells: HTLA cells
T2 sequence (P37288 whole entry): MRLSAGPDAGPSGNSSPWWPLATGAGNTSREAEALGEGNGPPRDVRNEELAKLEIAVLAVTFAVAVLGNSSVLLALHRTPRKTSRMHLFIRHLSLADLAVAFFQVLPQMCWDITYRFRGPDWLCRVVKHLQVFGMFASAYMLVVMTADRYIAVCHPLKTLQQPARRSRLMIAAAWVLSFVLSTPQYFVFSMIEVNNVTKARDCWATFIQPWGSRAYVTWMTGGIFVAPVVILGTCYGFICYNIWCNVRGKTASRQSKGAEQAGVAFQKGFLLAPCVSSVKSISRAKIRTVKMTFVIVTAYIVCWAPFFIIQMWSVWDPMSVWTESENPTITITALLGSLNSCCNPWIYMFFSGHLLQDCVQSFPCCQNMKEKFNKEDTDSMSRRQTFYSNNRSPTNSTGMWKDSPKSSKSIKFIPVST

320 non-olfactory GPCRs [3] = biological target: T3, 320 non-olfactory GPCRs (Homo sapiens, UniProt P50391); details: receptor NPY4R; replicate values, Fig_4g
T3 construct: expressed in transfected cells; host or cells: HTLA cells
T3 sequence (P50391 whole entry): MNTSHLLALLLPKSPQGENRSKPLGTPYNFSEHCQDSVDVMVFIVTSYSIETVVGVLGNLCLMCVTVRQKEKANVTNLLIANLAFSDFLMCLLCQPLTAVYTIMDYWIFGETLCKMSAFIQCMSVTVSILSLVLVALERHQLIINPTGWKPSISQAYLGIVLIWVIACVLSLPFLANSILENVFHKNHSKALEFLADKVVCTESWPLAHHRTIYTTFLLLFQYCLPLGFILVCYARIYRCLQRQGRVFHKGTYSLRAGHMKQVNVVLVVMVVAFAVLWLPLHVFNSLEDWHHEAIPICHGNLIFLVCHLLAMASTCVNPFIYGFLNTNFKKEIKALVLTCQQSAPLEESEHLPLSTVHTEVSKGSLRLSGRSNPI

320 non-olfactory GPCRs [4] = biological target: 320 non-olfactory GPCRs (Homo sapiens, UniProt P47211)
Chain of 320 non-olfactory GPCRs (Homo sapiens, UniProt P47211) (P47211 whole entry): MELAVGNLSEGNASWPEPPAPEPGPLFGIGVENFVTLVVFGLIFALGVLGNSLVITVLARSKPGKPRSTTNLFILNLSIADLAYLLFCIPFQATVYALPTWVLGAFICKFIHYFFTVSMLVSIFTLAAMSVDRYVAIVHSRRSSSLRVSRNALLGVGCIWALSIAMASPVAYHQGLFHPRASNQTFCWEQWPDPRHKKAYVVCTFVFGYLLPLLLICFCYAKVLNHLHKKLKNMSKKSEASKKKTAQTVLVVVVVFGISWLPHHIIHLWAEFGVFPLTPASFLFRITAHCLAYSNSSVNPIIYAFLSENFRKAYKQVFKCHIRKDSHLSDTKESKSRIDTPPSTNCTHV
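For Fold of Basal in this document: compound tested at 1 µM final concentration.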
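For GPCRome agonism screen response in this document: fold over basal response of each receptor without drug.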

T1 sequence (Q5NUL3 whole entry): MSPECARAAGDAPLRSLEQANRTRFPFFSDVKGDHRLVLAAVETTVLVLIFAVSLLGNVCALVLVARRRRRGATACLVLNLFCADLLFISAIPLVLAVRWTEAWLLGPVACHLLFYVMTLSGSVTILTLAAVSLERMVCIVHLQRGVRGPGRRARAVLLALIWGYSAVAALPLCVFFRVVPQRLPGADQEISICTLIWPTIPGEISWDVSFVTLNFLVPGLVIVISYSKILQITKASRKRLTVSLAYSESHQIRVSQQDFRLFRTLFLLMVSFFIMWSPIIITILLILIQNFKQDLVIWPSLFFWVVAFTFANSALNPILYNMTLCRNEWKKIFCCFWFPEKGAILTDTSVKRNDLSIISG

CCOc1cccc2cc(C(C)NCC3(O)CCCCC3)oc12 (stereo not shown) [O4LE6]
Fold of Basal (320 non-olfactory GPCRs [1]): 1.4501 and 0.8868 and 0.9227 and 1.231 | Fold of Basal (320 non-olfactory GPCRs [2]): 0.5721 and 0.4612 and 0.3897 and 0.4481 | GPCRome agonism screen response (320 non-olfactory GPCRs [3]): 0.9177 and 0.7118 and 1.258 and 0.6362 | Fold of Basal (320 non-olfactory GPCRs [4]): 0.9505 and 0.7559 and 1.028 and 0.7017
